From patent US20040052750A1, “Compositions for prevention and alleviation of skin wrinkles” (priority 2000, published 2004)
Marks after values point to notes of the source that are not given here.

Experiments:
hairless mice [1] = experiment: Alleviating photo-induced wrinkles in hairless mice; format: in vivo; conditions: twice a day for 6 weeks, 10 per group
Method: Mice were placed into 21 experimental groups and 3 control groups, with 10 rats per group. […] The experimental protocol is as follows. Hairless mice were radiated using a simulated sunlight at a dose of 2 MED (double Minimal Erythema Dose) 3 days a week for 10 weeks, thereby generating wrinkles. Then, respective active ingredients or the solvent only were applied at a volume of 100 μl each, twice a day for 6 weeks. Degrees of wrinkle reduction were determined. The determination was performed by visually observing the compound-applied region with naked eyes, and the region was photographed. The degrees of alleviation of wrinkles in the compound-treatment groups (experimental groups) were compared with those of the control group and were determined as one of 4 stages, that is, none (Score 0), slight (Score 1), moderate (Score 2) and high (Score 3), and the corresponding mice were counted.

[2] = tested on: fibroblasts derived from a human; experiment: Promoting collagen production in fibroblasts (3H-proline incorporation into collagenase-sensitive protein); format: cell-based; conditions: control = 100%
Method: The experimental protocol in detail is as follows.
Human-derived fibroblasts were transferred to a 24 well plate and cultured in a medium containing 10% fetal bovine serum (FBS) for 24 hours, followed by washing twice with phosphate buffered saline. […] After the incubation was terminated, cells from each group were harvested and two fractions of each culture were prepared. One fraction from each culture was treated with collagenase. To all fractions was added trichloroacetic acid to precipitate proteins. The amount of radioactivity incorporated into collagenase-sensitive protein was measured and compared with that of the other fraction which was not treated with collagenase. The difference in radioactivity was attributed to the promoting effect of the compound.

rat skin = experiment: Promotion of collagen production in rat skin (hydroxyproline in implanted PVA sponge); format: in vivo, SD rats; conditions: 200 μl every day for 10 days, control = 100%
Method: In brief, 5-week male SD rats were grouped with 5 rats per group. The rats were each incised 1 cm in the center of their abdomens and PVA sponges (Unipoint ind.) were inserted therein. After suturing, as for experimental groups, respective active ingredients to be examined were applied to the PVA sponge-embeded regions i n a volume o f 200 μl every day for 10 days. Upon autopsy, the PVA sponge was removed to quantify hydroxyproline. The PVA sponge was added with 4 ml of 6 N HCl, hydrolized at 130° C. for 3 hours and was subjected to complete drying. 50 μl of methanol was added and the solution was incubated at 110° C. until HCl was removed. 1.2 ml of 50% isopropanol was added to dissolve the remaining precipitate. 200 μl of chloramine-T (sodium p-toluensulfochloramide trihydrate) solution was added while stirring, and let stand for 10 min. After adding 1.2 ml of Ehrlich reagent and mixing, the solution was incubated at 50° C. for 90 min. The resulting solution was cooled to room temperature and absorbance at 558 nm was measured. Hydroxyproline standard solutions were prepared by dissolving 1 mg hydroxyproline in 1 ml HCl and diluting it to concentrations of 0, 0.2, 0.4, 0.8, 1 mg each relative to 25 μl of 6 N HCl. The standard solutions were hydrolyzed at 130° C. for 3 hours. The quantified value of hydroxyproline, relative to hydroxyproline value (100%) of the control group which was applied with solvent only, are shown in Table 2.

hairless mice [3] = experiment: Inhibiting the generation of wrinkles in hairless mice (simulated sunlight); format: in vivo; conditions: 10 per group
Method: 6-week hairless mice were placed into 21 experimental groups and 3 control groups, with 10 rats per group. […] The experimental protocol in detail is as follows. Hairless mice were radiated using simulated sunlight at a dose of 2 MED (double Minimal Erythema Dose) 3 days a week for […], thereby generating wrinkles. Respective active ingredients or the solvent only were applied twice every day (specifically, on radiation days, the application was performed at 30 min before and after the radiation), at a volume of 100 μl each for 10 weeks from the first radiation day. Degrees of inhibition of generated wrinkles were determined. The determination was performed by visual observation with naked eyes and photography.

Compound	Reduction of wrinkles, Score 0 (none) (hairless mice [1]; 10^-3 M)	Reduction of wrinkles, Score 1 (slight) (hairless mice [1]; 10^-3 M)	Reduction of wrinkles, Score 2 (moderate) (hairless mice [1]; 10^-3 M)	Reduction of wrinkles, Score 3 (high) (hairless mice [1]; 10^-3 M)	Reduction of wrinkles, Score 0 (none) (hairless mice [1]; 10^-5 M)	Reduction of wrinkles, Score 1 (slight) (hairless mice [1]; 10^-5 M)	Reduction of wrinkles, Score 2 (moderate) (hairless mice [1]; 10^-5 M)	Reduction of wrinkles, Score 3 (high) (hairless mice [1]; 10^-5 M)	Reduction of wrinkles, Score 0 (none) (hairless mice [1]; 10^-8 M)	Reduction of wrinkles, Score 1 (slight) (hairless mice [1]; 10^-8 M)	Reduction of wrinkles, Score 2 (moderate) (hairless mice [1]; 10^-8 M)	Reduction of wrinkles, Score 3 (high) (hairless mice [1]; 10^-8 M)	Effect of promoting collagen production in fibroblasts (rate of collagen production) ([2]; 10^-5 M) [%]	Effect of promoting collagen production in fibroblasts (rate of collagen production) ([2]; 10^-6 M) [%]	Effect of promoting collagen production in fibroblasts (rate of collagen production) ([2]; 10^-7 M) [%]	Effect of promoting collagen production in fibroblasts (rate of collagen production) ([2]; 10^-8 M)	Effect of promoting collagen production in animal skin (hydroxyproline value vs control) (rat skin; 10^-5 M) [%]	Effect of promoting collagen production in animal skin (hydroxyproline value vs control) (rat skin; 10^-6 M) [%]	Effect of promoting collagen production in animal skin (hydroxyproline value vs control) (rat skin; 10^-7 M) [%]	Effect of promoting collagen production in animal skin (hydroxyproline value vs control) (rat skin; 10^-8 M)	other results
CCOC(=O)C1=C(COCCN)NC(C)=C(C(=O)OC)C1c1ccccc1Cl (stereo not drawn) [Amoldipine]	0 number of mice	1 number of mice	3 number of mice	6 number of mice	0 number of mice	2 number of mice	2 number of mice	6 number of mice	0 number of mice	1 number of mice	1 number of mice	8 number of mice	355.26	330.42	280.07	182.42%	181.12	163.84	149.65	132.50%	Inhibition of wrinkles, Score 0 (none) (hairless mice [3]; 10^-3 M): 0 number of mice; Inhibition of wrinkles, Score 1 (slight) (hairless mice [3]; 10^-3 M): 0 number of mice; Inhibition of wrinkles, Score 2 (moderate) (hairless mice [3]; 10^-3 M): 2 number of mice; Inhibition of wrinkles, Score 3 (high) (hairless mice [3]; 10^-3 M): 8 number of mice; Inhibition of wrinkles, Score 0 (none) (hairless mice [3]; 10^-5 M): 0 number of mice; Inhibition of wrinkles, Score 1 (slight) (hairless mice [3]; 10^-5 M): 1 number of mice; Inhibition of wrinkles, Score 2 (moderate) (hairless mice [3]; 10^-5 M): 3 number of mice; Inhibition of wrinkles, Score 3 (high) (hairless mice [3]; 10^-5 M): 6 number of mice; Inhibition of wrinkles, Score 0 (none) (hairless mice [3]; 10^-8 M): 0 number of mice; Inhibition of wrinkles, Score 1 (slight) (hairless mice [3]; 10^-8 M): 1 number of mice; Inhibition of wrinkles, Score 2 (moderate) (hairless mice [3]; 10^-8 M): 1 number of mice; Inhibition of wrinkles, Score 3 (high) (hairless mice [3]; 10^-8 M): 8 number of mice
COc1ccc([C@@H]2Sc3ccccc3N(CCN(C)C)C(=O)[C@@H]2OC(C)=O)cc1 [Diltiazem]	0 number of mice	0 number of mice	2 number of mice	8 number of mice	0 number of mice	1 number of mice	2 number of mice	7 number of mice	0 number of mice	1 number of mice	2 number of mice	7 number of mice	362.12	321.23	276.25	199.15%	175.23	157.45	136.76	122.44%	Inhibition of wrinkles, Score 0 (none) (hairless mice [3]; 10^-3 M): 0 number of mice; Inhibition of wrinkles, Score 1 (slight) (hairless mice [3]; 10^-3 M): 1 number of mice; Inhibition of wrinkles, Score 2 (moderate) (hairless mice [3]; 10^-3 M): 2 number of mice; Inhibition of wrinkles, Score 3 (high) (hairless mice [3]; 10^-3 M): 7 number of mice; Inhibition of wrinkles, Score 0 (none) (hairless mice [3]; 10^-5 M): 0 number of mice; Inhibition of wrinkles, Score 1 (slight) (hairless mice [3]; 10^-5 M): 2 number of mice; Inhibition of wrinkles, Score 2 (moderate) (hairless mice [3]; 10^-5 M): 2 number of mice; Inhibition of wrinkles, Score 3 (high) (hairless mice [3]; 10^-5 M): 6 number of mice; Inhibition of wrinkles, Score 0 (none) (hairless mice [3]; 10^-8 M): 0 number of mice; Inhibition of wrinkles, Score 1 (slight) (hairless mice [3]; 10^-8 M): 2 number of mice; Inhibition of wrinkles, Score 2 (moderate) (hairless mice [3]; 10^-8 M): 2 number of mice; Inhibition of wrinkles, Score 3 (high) (hairless mice [3]; 10^-8 M): 6 number of mice
O=C1NC(=O)C(c2ccccc2)(c2ccccc2)N1 [Phenytoin]	0 number of mice	0 number of mice	3 number of mice	7 number of mice	0 number of mice	1 number of mice	3 number of mice	6 number of mice	0 number of mice	1 number of mice	2 number of mice	7 number of mice	381.54	360.65	298.35	215.28* %	182.47	167.41	143.51	132.58* %	Inhibition of wrinkles, Score 0 (none) (hairless mice [3]; 10^-3 M): 0 number of mice; Inhibition of wrinkles, Score 1 (slight) (hairless mice [3]; 10^-3 M): 0 number of mice; Inhibition of wrinkles, Score 2 (moderate) (hairless mice [3]; 10^-3 M): 3 number of mice; Inhibition of wrinkles, Score 3 (high) (hairless mice [3]; 10^-3 M): 7 number of mice; Inhibition of wrinkles, Score 0 (none) (hairless mice [3]; 10^-5 M): 0 number of mice; Inhibition of wrinkles, Score 1 (slight) (hairless mice [3]; 10^-5 M): 0 number of mice; Inhibition of wrinkles, Score 2 (moderate) (hairless mice [3]; 10^-5 M): 3 number of mice; Inhibition of wrinkles, Score 3 (high) (hairless mice [3]; 10^-5 M): 7 number of mice; Inhibition of wrinkles, Score 0 (none) (hairless mice [3]; 10^-8 M): 0 number of mice; Inhibition of wrinkles, Score 1 (slight) (hairless mice [3]; 10^-8 M): 0 number of mice; Inhibition of wrinkles, Score 2 (moderate) (hairless mice [3]; 10^-8 M): 2 number of mice; Inhibition of wrinkles, Score 3 (high) (hairless mice [3]; 10^-8 M): 8 number of mice
